Assay results as given in ChEMBL document CHEMBL4706531, “Discovery of Novel c-Mesenchymal-Epithelia transition factor and histone deacetylase dual inhibitors” (Eur J Med Chem, 2020).

Experiments:
[1] = system: HCT-116; assay: cells; format: functional, cell-based; settings: Homo sapiens, HCT-116, 72 h
Description: Antiproliferative activity against human HCT-116 cells assessed as inhibition of cell proliferation measured after 72 hrs by MTT assay

[2] = system: MCF7; assay: cells; format: functional, cell-based; settings: Homo sapiens, MCF7, 72 h
Description: Antiproliferative activity against human MCF7 cells assessed as inhibition of cell proliferation measured after 72 hrs by MTT assay

[3] = system: A549; assay: cells; format: functional, cell-based; settings: Homo sapiens, A549, 72 h
Description: Antiproliferative activity against human A549 cells assessed as inhibition of cell proliferation measured after 72 hrs by MTT assay

[4] = molecular target: Histone deacetylase 1 (Homo sapiens, UniProt Q13547); settings: Sf9, dose 100.0 nM, time 75.0 min
[5] = molecular target: T1, Hepatocyte growth factor receptor (Homo sapiens, UniProt P08581); settings: dose 100.0 nM, time 10.0 min
[6] = molecular target: T1, Hepatocyte growth factor receptor; assay: Inhibition of c-MET(unknown origin) using FAM labelled peptide substrate preincubated for 10 mins followed by substrate addition and measured by microplate reader method

Chain of Histone deacetylase 1 (Q13547 whole entry): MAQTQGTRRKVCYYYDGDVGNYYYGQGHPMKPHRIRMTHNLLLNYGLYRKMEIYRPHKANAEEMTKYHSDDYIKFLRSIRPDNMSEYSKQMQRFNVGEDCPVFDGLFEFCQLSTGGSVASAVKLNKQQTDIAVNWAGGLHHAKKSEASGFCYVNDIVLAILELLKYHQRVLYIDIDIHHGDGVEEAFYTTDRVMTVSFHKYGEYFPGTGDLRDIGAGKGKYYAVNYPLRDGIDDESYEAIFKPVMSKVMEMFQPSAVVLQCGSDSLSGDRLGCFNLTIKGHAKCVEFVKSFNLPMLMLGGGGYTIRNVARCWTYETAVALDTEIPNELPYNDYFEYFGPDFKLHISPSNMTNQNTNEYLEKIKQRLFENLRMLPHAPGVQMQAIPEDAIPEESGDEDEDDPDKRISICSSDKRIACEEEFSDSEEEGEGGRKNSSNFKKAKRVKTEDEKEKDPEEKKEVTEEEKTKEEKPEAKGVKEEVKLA
T1 sequence (P08581 whole entry): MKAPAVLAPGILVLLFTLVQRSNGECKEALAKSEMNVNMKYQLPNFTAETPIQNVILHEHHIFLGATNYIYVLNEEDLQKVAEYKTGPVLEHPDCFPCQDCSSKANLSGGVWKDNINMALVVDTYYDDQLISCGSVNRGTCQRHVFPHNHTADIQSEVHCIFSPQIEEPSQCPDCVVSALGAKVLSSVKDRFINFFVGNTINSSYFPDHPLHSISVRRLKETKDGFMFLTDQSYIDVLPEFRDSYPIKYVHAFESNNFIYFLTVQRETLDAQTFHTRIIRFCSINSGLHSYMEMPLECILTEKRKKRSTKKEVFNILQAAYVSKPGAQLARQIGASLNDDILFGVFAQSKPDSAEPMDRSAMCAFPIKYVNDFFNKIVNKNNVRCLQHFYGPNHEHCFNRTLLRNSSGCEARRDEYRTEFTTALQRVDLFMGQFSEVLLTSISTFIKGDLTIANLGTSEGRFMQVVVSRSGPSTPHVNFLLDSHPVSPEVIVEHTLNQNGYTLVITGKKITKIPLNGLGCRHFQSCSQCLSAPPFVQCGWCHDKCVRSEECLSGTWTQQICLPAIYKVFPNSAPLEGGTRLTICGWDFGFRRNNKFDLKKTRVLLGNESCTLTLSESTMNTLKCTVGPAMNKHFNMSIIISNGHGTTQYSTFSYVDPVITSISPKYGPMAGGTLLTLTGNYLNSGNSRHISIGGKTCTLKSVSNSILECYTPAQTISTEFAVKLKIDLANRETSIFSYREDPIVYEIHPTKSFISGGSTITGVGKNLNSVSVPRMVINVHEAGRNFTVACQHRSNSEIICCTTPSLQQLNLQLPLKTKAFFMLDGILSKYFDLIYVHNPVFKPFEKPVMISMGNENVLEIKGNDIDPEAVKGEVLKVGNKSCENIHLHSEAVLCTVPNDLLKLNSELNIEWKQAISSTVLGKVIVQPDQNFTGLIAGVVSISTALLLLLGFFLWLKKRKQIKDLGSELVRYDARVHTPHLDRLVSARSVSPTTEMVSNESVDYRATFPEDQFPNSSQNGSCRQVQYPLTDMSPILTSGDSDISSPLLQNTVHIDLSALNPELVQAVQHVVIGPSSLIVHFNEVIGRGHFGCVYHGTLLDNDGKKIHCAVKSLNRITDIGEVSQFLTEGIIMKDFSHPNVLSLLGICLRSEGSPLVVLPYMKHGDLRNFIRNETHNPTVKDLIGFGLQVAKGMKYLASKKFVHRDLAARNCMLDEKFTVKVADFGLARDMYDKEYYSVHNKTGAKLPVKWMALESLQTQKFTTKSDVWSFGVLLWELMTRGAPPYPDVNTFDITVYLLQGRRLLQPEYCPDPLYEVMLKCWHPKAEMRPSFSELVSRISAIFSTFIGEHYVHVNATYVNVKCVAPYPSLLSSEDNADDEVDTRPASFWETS

Row | Compound | IC50 [1] [nM] | IC50 [2] [nM] | IC50 [3] [nM] | inhibition [4] [%] | inhibition [5] [%] | IC50 [6] [nM]
1 | COc1cc2nccc(Oc3ccc(NC(=O)C4(C(=O)Nc5ccc(F)cc5)CC4)cc3)c2cc1OC [CABOZANTINIB] | 4670 | 5980 | 7800 |  |  | 
2 | COc1cc2c(Oc3ccc(NC(=O)c4nn(-c5ccccc5C)cc(C)c4=O)cc3F)ccnc2cc1OCCCC(=O)NO | 2040 | 2600 | 2090 | 8 | 95.5 | 
3 | COc1cc2c(Oc3ccc(NC(=O)c4nn(-c5ccccc5F)cc(C)c4=O)cc3F)ccnc2cc1OCCCC(=O)NO | 1120 | 2100 | 1370 | 7.1 | 94 | 
4 | COc1cc2c(Oc3ccc(NC(=O)c4nn(-c5ccccc5C)ccc4=O)cc3)ccnc2cc1OCCCCCC(=O)NO | 700 | 4360 | 3920 | 62.1 | 90.4 | 
5 | COc1cc2c(Oc3ccc(NC(=O)c4nn(-c5ccccc5C(F)(F)F)ccc4=O)cc3)ccnc2cc1OCC(=O)NO | 9500 | 6320 | > 20000 | 1.2 | 56.3 | 
6 | COc1cc2c(Oc3ccc(NC(=O)c4nn(-c5ccccc5C)cc(C)c4=O)cc3)ccnc2cc1OCCCCCCC(=O)NO | 660 | 1830 | 3130 | 89.1 | 78.6 | 

Further compounds by falling IC50 [1], results first:

Row | IC50 [1] [nM] | IC50 [2] [nM] | IC50 [3] [nM] | inhibition [4] [%] | inhibition [5] [%] | IC50 [6] [nM] | Compound
7 | 660 | 1900 | 1900 | 2.5 | 98.3 |  | COc1cc2c(Oc3ccc(NC(=O)c4nn(-c5ccccc5)cc(C)c4=O)cc3F)ccnc2cc1OCCCC(=O)NO
8 | 640 | 1600 | 4460 | 10.7 | 98.5 |  | COc1cc2c(Oc3ccc(NC(=O)c4nn(-c5ccccc5C)cc(C)c4=O)cc3)ccnc2cc1OCCCC(=O)NO
9 | 590 | 750 | 780 | 35.3 | 46.3 |  | COc1cc2c(Oc3ccc(NC(=O)c4nn(-c5cccc(C(F)(F)F)c5)cc(C)c4=O)cc3)ccnc2cc1OCCCCCCC(=O)NO
10 | 400 | 2560 | 160 | 47.6 | 72.8 |  | COc1cc2c(Oc3ccc(NC(=O)c4nn(-c5ccc(C)cc5)cc(C)c4=O)cc3)ccnc2cc1OCCCCCCC(=O)NO
11 | 370 | 1680 | 280 | 62 | 76.5 |  | COc1cc2c(Oc3ccc(NC(=O)c4nn(-c5cccc(C)c5)cc(C)c4=O)cc3)ccnc2cc1OCCCCCCC(=O)NO
12 | 370 | 2200 | 380 | 40 | 61.1 |  | COc1cc2c(Oc3ccc(NC(=O)c4nn(-c5ccc(F)c(Cl)c5)cc(C)c4=O)cc3)ccnc2cc1OCCCCCCC(=O)NO
13 | 370 | 630 | 1120 |  | 93.8 | 7.42 | COc1cc2c(Oc3ccc(NC(=O)c4nn(-c5ccccc5)cc(C)c4=O)cc3F)ccnc2cc1OCCCN1CCOCC1
